Among the data in patent US20170252323A1, “4-[2-(Dipropylamino)ethyl]-1,3-dihydro-2H-indol-2-one (Ropinirole) a New Inhibitor of Jack bean Urease Enzyme: An Example of Drug Repurposing” (priority 2016, published 2017) are IC50 and type of inhibition values, retold here.

SMILES strings stand for the structures. Like-named read-outs stand apart in the source and are kept apart here.

The target in assay [1] is Jack bean (Canavalia ensiformis) urease (Canavalia ensiformis, UniProt P07374). The assay can be described thus: biochemical. The source says:
Each point in the constructed graphs represents the mean of the three experiments.

Assay [2] addresses urease enzyme (Canavalia ensiformis, UniProt P07374). The assay can be described thus: Mechanistic studies (Lineweaver-Burk, secondary replot, Dixon plot). To be noted: Lineweaver-Burk and Dixon plots; substrate 0.5-4.0 mM; Ropinirole 5, 10, 20 μM. The class given is biochemical. The method, then:
Mechanistic studies were carried out to determine the mechanism of inhibition of 4-[2-(dipropylamino)ethyl]-1,3-dihydro-2H-indol-2-one ( Ropinirole) of the enzyme urease. In brief, urease enzyme solution (1 U/200 μL) was incubated with different concentrations of Ropinirole for 15 min at 30° C. The reaction was then initiated by adding different concentrations of substrate (0.5-4.0 mM), then phenol and alkali reagent were added and change in absorbance was measured for 50 minutes at 630 nm on microtitre plate reader (SpectraMax M5, Molecular Devices, Calif., USA). The Lineweaver-Burk plot was used to determine the type of inhibition, while secondary replot of Lineweaver-Burk plot and Dixon plots were used for the determination and confirmation of dissociation constants (Ki).
The EZ-Fit enzyme kinetics program (Perrella Scientific Inc., Amherst, USA) was employed to calculate the IC50 values. All graphs were plotted by using Grafit 7 (Erithacus Software Limited, UK). Values of the correlation coefficients, intercepts, slopes, and their standard errors were calculated by the linear regression analysis by using the same program. Each point in the constructed graphs represents the mean of the three experiments.

Jack bean (Canavalia ensiformis) urease, sequence (P07374 whole entry, looked up): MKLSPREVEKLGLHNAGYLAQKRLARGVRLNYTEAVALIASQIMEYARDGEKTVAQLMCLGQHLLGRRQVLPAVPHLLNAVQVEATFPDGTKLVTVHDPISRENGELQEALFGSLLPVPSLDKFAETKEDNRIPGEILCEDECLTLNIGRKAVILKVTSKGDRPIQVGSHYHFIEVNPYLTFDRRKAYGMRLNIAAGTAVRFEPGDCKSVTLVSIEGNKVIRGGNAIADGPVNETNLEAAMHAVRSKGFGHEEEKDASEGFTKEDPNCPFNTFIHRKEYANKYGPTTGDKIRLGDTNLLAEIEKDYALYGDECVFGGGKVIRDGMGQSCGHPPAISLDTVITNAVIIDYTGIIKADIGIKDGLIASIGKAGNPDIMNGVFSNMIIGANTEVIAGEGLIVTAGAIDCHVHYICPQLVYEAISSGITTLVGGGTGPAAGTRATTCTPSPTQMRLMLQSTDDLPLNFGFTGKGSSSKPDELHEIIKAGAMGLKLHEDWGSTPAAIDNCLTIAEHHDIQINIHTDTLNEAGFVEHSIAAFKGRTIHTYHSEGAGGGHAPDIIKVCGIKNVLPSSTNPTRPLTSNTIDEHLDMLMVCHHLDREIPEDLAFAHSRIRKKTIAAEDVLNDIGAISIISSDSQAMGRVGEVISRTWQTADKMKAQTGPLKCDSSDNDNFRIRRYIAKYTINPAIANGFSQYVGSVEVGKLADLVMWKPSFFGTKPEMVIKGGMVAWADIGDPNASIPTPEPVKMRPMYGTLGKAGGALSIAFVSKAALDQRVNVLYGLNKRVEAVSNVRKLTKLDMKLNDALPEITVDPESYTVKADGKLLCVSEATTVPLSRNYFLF
urease enzyme, sequence (P07374 whole entry, looked up): as above

Usually IC50 stands for the concentration at which inhibition is half-maximal. Regarding `CCCN(CCC)CCc1cccc2c1CC(=O)N2` [Ropinirole, 4-[2-(Dipropylamino)ethyl]-1,3-dihydro-2H-indol-2-one], half-maximal inhibition in assay [1] (IC50) was put at 11.7 ± 0.46 µM. The type of inhibition entry in assay [2] was “mixed-type of inhibitor”. In the case of `CC(=O)NO` [acetohydroxamic acid], in assay [1] (Jack bean urease, 100 mM urea, pH 6.8, 30° C., 15 min, triplicate, read-out: IC50 (urease inhibition)), the IC50 came out at 41.5 ± 1.5 µM.
